For one experiment, the target named is T1, JAK3 (Homo sapiens, UniProt P52333).
T1 sequence (P52333 1-1124): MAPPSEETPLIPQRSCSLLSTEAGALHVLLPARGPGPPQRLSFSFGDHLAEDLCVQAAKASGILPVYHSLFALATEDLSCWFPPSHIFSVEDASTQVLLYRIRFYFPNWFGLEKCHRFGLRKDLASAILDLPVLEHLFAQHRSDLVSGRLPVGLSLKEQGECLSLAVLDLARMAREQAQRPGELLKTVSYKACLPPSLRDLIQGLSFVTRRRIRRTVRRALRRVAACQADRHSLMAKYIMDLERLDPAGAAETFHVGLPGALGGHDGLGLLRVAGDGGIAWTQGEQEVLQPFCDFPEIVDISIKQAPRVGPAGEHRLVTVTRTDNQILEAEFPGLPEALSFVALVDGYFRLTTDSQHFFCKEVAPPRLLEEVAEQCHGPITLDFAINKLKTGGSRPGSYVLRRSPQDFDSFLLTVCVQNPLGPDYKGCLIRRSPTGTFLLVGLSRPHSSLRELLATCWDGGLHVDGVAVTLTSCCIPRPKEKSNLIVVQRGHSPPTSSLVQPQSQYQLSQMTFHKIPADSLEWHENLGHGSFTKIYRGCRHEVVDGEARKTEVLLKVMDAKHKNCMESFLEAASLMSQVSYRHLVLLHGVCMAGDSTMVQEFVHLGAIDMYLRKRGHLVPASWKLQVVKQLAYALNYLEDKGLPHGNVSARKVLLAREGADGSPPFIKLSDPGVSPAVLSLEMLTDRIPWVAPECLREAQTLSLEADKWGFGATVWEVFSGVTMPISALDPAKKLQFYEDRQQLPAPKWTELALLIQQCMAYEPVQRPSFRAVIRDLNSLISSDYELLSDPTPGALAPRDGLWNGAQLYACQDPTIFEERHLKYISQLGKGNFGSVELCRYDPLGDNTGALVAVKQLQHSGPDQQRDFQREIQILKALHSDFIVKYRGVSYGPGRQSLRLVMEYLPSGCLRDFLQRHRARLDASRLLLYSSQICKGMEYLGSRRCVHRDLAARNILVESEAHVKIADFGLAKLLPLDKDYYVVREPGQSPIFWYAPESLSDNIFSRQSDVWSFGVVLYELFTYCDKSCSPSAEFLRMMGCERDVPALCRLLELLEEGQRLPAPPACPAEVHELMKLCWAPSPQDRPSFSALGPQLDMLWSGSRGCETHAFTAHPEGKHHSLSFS
The experiment is described as follows: JAK3 Inhibition Assay. The class given is biochemical. As to conditions: 1 nM JAK3, 1 μM poly(Glu)4Tyr, 5 μM ATP, 25° C.; read-out: enzyme inhibition data (Ki) JAK3. As to the method:
(§1) Compounds were screened for their ability to inhibit JAK3 using the assay shown below. Reactions were carried out in a kinase buffer containing 100 mM HEPES (pH 7.4), 1 mM DTT, 10 mM MgCl2, 25 mM NaCl, and 0.01% BSA. Substrate concentrations in the assay were 5 μM ATP (200 uCi/μmole ATP) and 1 μM poly(Glu)4Tyr. Reactions were carried out 25° C. and 1 nM JAK3.
(§2) To each well of a 96 well polycarbonate plate was added 1.5 μl of a candidate JAK3 inhibitor along with 50 μl of kinase buffer containing 2 μM poly(Glu)4Tyr and 10 μM ATP. This was then mixed and 50 μl of kinase buffer containing 2 nM JAK3 enzyme was added to start the reaction. After 20 minutes at room temperature (25° C.), the reaction was stopped with 50 μl of 20% trichloroacetic acid (TCA) that also contained 0.4 mM ATP. The entire contents of each well were then transferred to a 96 well glass fiber filter plate using a TomTek Cell Harvester. After washing, 60 μl of scintillation fluid was added and ^33P incorporation detected on a Perkin Elmer TopCount.

In a further experiment the target is JAK2 (Homo sapiens, UniProt O60674). The experiment in a line: JAK2 Inhibition Assay. The experiment is classed as biochemical. The note with it: JAK-2 enzyme, 15 μM poly(Glu)4Tyr, 12 μM ATP. As to the method: as §1, §2
JAK2, sequence (O60674 whole entry): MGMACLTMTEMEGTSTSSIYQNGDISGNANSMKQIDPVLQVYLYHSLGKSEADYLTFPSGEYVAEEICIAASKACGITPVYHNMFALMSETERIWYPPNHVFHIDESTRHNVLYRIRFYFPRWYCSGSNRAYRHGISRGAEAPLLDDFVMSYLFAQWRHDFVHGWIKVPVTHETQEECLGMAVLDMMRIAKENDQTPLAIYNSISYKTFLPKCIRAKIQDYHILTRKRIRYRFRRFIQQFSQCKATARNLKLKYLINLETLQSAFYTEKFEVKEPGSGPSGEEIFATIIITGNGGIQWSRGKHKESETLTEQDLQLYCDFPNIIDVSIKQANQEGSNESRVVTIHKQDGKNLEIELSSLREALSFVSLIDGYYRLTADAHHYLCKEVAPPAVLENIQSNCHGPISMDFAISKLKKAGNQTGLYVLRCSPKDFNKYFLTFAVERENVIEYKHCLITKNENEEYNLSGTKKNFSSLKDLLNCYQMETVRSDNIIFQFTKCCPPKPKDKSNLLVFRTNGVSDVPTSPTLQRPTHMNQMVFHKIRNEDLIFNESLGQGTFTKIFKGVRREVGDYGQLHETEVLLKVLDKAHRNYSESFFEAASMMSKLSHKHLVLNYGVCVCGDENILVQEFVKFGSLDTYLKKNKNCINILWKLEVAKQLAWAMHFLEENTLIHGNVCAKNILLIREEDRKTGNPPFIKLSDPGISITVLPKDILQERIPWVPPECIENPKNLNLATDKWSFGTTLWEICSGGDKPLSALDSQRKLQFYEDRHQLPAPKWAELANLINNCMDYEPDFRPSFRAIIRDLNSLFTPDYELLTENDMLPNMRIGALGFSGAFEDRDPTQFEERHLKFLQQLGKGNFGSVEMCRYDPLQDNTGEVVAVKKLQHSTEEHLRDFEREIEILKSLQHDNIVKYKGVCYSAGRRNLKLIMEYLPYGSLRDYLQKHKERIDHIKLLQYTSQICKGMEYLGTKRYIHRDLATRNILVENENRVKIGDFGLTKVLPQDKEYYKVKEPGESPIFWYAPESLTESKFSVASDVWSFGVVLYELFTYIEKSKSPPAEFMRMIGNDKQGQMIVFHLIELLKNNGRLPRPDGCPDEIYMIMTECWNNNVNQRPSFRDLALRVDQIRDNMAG
The assays were as described above in Example 36 except that JAK-2 enzyme was used, the final poly(Glu)4Tyr concentration was 15 μM, and final ATP concentration was 12 μM.

As usually defined, the Ki is a measure of affinity in units of concentration, obtained from inhibition or displacement.

Structures are written as SMILES.

As for `O=C(NCC(F)(F)F)C1COCCN1c1cnc(-c2c[nH]c3ncncc23)nc1` (stereo not shown) [Compound 60], the Ki is less than 0.5 µM at JAK3 and 0.5 to 5 µM on JAK2.
Taken in the same sequence, the figures for `OC[C@@H]1CCCN1c1nc(-c2c[nH]c3ncncc23)ncc1F` [Compound 21, ((S)-1-(5-fluoro-2-(7H-pyrrolo[2,3-d]pyrimidin-5-yl)pyrimidin-4-yl)pyrrolidin-2-yl)methanol] were 0.5 to 5 µM and 0.5 to 5 µM.
For `COC[C@@H]1CCCN1c1nc(-c2c[nH]c3ncncc23)ncc1F` [Compound 23, 5-(5-fluoro-4-((S)-2-(methoxymethyl)pyrrolidin-1-yl)pyrimidin-2-yl)-7H-pyrrolo[2,3-d]pyrimidine], the Ki at JAK3 and at JAK2 was 0.5 to 5 µM throughout.
`C[C@H](Nc1nc(-c2c[nH]c3ncncc23)ccc1[N+](=O)[O-])C(=O)NCC(F)(F)F` [Compound 46]: the Ki on JAK3 is less than 0.5 µM; at JAK2, 0.5 to 5 µM.
For the compound `C[C@H](Nc1cc(C(=O)O)nc(-c2c[nH]c3ncncc23)n1)C(=O)NCC(F)(F)F` [Compound 3, 6-((S)-1-(2,2,2-trifluoroethylcarbamoyl)ethylamino)-2-(7H-pyrrolo[2,3-d]pyrimidin-5-yl)pyrimidine-4-carboxylic acid], the inhibitory constant (Ki) at JAK3 is less than 0.5 µM; on JAK2, greater than 5 µM.
The matching figures for `C[C@H](Nc1cc(N2CCCC2)nc(-c2c[nH]c3ncncc23)n1)C(=O)NCC(F)(F)F` [Compound 32, (S)-2-(6-(pyrrolidin-1-yl)-2-(7H-pyrrolo[2,3-d]pyrimidin-5-yl)pyrimidin-4-ylamino)-N-(2,2,2-trifluoroethyl)propanamide]: greater than 5 µM and greater than 5 µM.
As for `C[C@H](Nc1ccnc(-c2c[nH]c3ncncc23)n1)c1ccc(F)cc1` [Compound 84], the Ki at JAK3 and on JAK2 was less than 0.5 µM each time.
Turning to `C[C@H](Nc1nc(-c2c[nH]c3ncncc23)nc(N2CCOCC2)n1)C(=O)NCC(F)(F)F` [Compound 37, (S)-2-(4-morpholino-6-(7H-pyrrolo[2,3-d]pyrimidin-5-yl)-1,3,5-triazin-2-ylamino)-N-(2,2,2-trifluoroethyl)propanamide], the Ki at JAK3 and at JAK2 was greater than 5 µM in each case.
With `CC(C)[C@@](C)(Nc1nc(-c2c[nH]c3ncncc23)ncc1F)C(=O)NCC(F)(F)F` [Compound 65], the Ki at JAK3 and on JAK2 was less than 0.5 µM each time.
On to `CC(C)(Nc1nc(-c2c[nH]c3ncncc23)ncc1F)C(=O)NCC(F)(F)F` [Compound 56, 2-(5-fluoro-2-(7H-pyrrolo[2,3-d]pyrimidin-5-yl)pyrimidin-4-ylamino)-N-(2,2,2-trifluoroethyl)-2-methylpropanamide], for which the Ki at JAK3 and at JAK2 was less than 0.5 µM in each case.
As for `CN(c1ccnc(-c2c[nH]c3ncncc23)n1)C1(C(=O)NCC(F)(F)F)CC1` [Compound 96], the Ki at JAK3 and on JAK2 was less than 0.5 µM throughout.
On to `C[C@@H](Nc1nc(-c2c[nH]c3ncncc23)ncc1F)C(=O)NCC(F)(F)F` [Compound 40, (R)-2-(5-fluoro-2-(7H-pyrrolo[2,3-d]pyrimidin-5-yl)pyrimidin-4-ylamino)-N-(2,2,2-trifluoroethyl)propanamide], for which the inhibition constant (Ki) at JAK3 and at JAK2 was less than 0.5 µM throughout.
In the case of `CC(C)[C@H](C)NC(=O)c1cc(N[C@@H](C)C(=O)NCC(F)(F)F)nc(-c2c[nH]c3ncncc23)n1` [Compound 16], the inhibition constant (Ki) on JAK3 and on JAK2 was 0.5 to 5 µM each time.
Take `CC(C)(Nc1nc(-c2c[nH]c3ncncc23)nc2ccccc12)C(=O)NCC(F)(F)F` [Compound 105]: the Ki on JAK3 and at JAK2 was less than 0.5 µM throughout.
As for `C[C@H](Nc1cc(C(=O)N(C)Cc2ccccc2)nc(-c2c[nH]c3ncncc23)n1)C(=O)NCC(F)(F)F` [Compound 17], the Ki on JAK3 and on JAK2 was 0.5 to 5 µM throughout.
`Nc1nc(-c2c[nH]c3ncncc23)ncc1F` [Compound 49]: the inhibition constant Ki at JAK3 is 0.5 to 5 µM; on JAK2 it was greater than 5 µM.
On to `O=C(NCC(F)(F)F)C1(Nc2ccnc(-c3c[nH]c4ncncc34)n2)CCOC1` (stereo not shown) [Compound 101], for which the inhibition constant (Ki) at JAK3 and on JAK2 was less than 0.5 µM in each case.
For the compound `O=C(NCC(F)(F)F)[C@@H]1CCCCN1c1ccnc(-c2c[nH]c3ncncc23)n1` [Compound 61], the Ki on JAK3 is less than 0.5 µM; at JAK2 it was 0.5 to 5 µM.
Turning to `COC[C@H](Nc1nc(-c2c[nH]c3ncncc23)nc2ccccc12)C(=O)NCC(F)(F)F` [Compound 47], the inhibitory constant (Ki) was 0.5 to 5 µM at JAK3 and greater than 5 µM on JAK2.
`C[C@H](Nc1cc(C(=O)N(C)CCO)nc(-c2c[nH]c3ncncc23)n1)C(=O)NCC(F)(F)F` [Compound 15]: the inhibition constant (Ki) on JAK3 and at JAK2 was 0.5 to 5 µM each time.
`O=C(NCC(F)(F)F)C1(Nc2nc(-c3c[nH]c4ncncc34)ncc2F)CC1` [Compound 57]: the inhibition constant Ki on JAK3 and on JAK2 was less than 0.5 µM each time.
Regarding `O=C(NCC(F)(F)F)[C@H](CO)Nc1nc(-c2c[nH]c3ncncc23)ncc1F` [Compound 50], the Ki on JAK3 is less than 0.5 µM; at JAK2, 0.5 to 5 µM.
Regarding `C[C@@H](Nc1ccnc(-c2c[nH]c3ncncc23)n1)c1ccc(F)cc1` [Compound 83], the Ki at JAK3 and at JAK2 was less than 0.5 µM in each case.
With `O=C(CNc1ccnc(-c2c[nH]c3ncncc23)n1)NCC(F)(F)F` [Compound 76], the Ki on JAK3 and on JAK2 was less than 0.5 µM in each case.
In the case of `C[C@@H](Nc1nc(-c2c[nH]c3ncncc23)nc2ccccc12)C(=O)NCC(F)(F)F` [Compound 38], the inhibitory constant (Ki) at JAK3 and at JAK2 was less than 0.5 µM each time.
With `C[C@H](Nc1nc(-c2c[nH]c3ncncc23)nc2ccccc12)C(=O)NCC(F)(F)F` [Compound 34], the inhibition constant (Ki) at JAK3 was less than 0.5 µM; at JAK2, 0.5 to 5 µM.
Regarding `CC(C)(Nc1ccnc(-c2c[nH]c3ncncc23)n1)C(=O)NCC(F)(F)F` [Compound 63], the Ki at JAK3 and at JAK2 was less than 0.5 µM each time.
Take `C[C@@H](Nc1ncnc(-c2c[nH]c3ncncc23)n1)C(=O)NCC(F)(F)F` [Compound 78, (R)-2-(4-(7H-pyrrolo[2,3-d]pyrimidin-5-yl)-1,3,5-triazin-2-ylamino)-N-(2,2,2-trifluoroethyl)propanamide]: the figures for the inhibition constant (Ki) on JAK3 and at JAK2 were less than 0.5 µM and 0.5 to 5 µM, respectively.
Taken in the same sequence, the figures for `C[C@H](Nc1cc(OC2CCOC2)nc(-c2c[nH]c3ncncc23)n1)C(=O)NCC(F)(F)F` (stereo partly shown) [Compound 10] were 0.5 to 5 µM and greater than 5 µM.
Taken in the same sequence, the figures for `C[C@H](Nc1nc(-c2c[nH]c3ncncc23)cc(N2CCCC2)n1)C(=O)NCC(F)(F)F` [Compound 31, (S)-2-(4-(pyrrolidin-1-yl)-6-(7H-pyrrolo[2,3-d]pyrimidin-5-yl)pyrimidin-2-ylamino)-N-(2,2,2-trifluoroethyl)propanamide] were 0.5 to 5 µM and greater than 5 µM.
As for `CC1CCN(C(=O)c2cc(N[C@@H](C)C(=O)NCC(F)(F)F)nc(-c3c[nH]c4ncncc34)n2)CC1` [Compound 7], the inhibitory constant (Ki) at JAK3 is less than 0.5 µM; at JAK2 it was 0.5 to 5 µM.
`CC(C)[C@H](C(=O)NCC(F)(F)F)n1ccc2cnc(-c3c[nH]c4ncncc34)nc21` [Compound 110, (R)-2-(2-(7H-pyrrolo[2,3-d]pyrimidin-5-yl)-7H-pyrrolo[2,3-d]pyrimidin-7-yl)-N-(2,2,2-trifluoroethyl)-3-methylbutanamide]: the Ki at JAK3 and on JAK2 was less than 0.5 µM throughout.

The values are drawn from patent US8580802B2, “Pyrrolo[2,3-D]pyrimidines as inhibitors of Janus kinases” (Vertex Pharmaceuticals Incorporated, priority 2005, dated 2013).
